“And” between values parts separate entries of the source, which are not always exact repeats. Equal values may be shown once.
Tests used:
[1] = Cannabinoid profile of crystalline product samples by HPLC-DAD-MS analysis (cannabinoid preservation); conditions: for Cannabinoid quantity, Avg R103A-C: average of Samples R103A-C; for Cannabinoid quantity, Avg R103A-C / Cannabinoid quantity in Control R104 / Cannabinoid quantity in Sample S103 / Cannabinoid quantity in Sample R103A / Cannabinoid quantity in Sample R103B: without rapid cooling process; for Cannabinoid quantity in Control R104: control crystalline product; for Cannabinoid quantity in Sample S201 / Cannabinoid quantity in Sample S103 / Cannabinoid quantity in Sample R104A / Cannabinoid quantity in (Retest) Sample R104A / Cannabinoid quantity in Sample R104B / Cannabinoid quantity in Sample R103A / Cannabinoid quantity in Sample R103B: crystalline product; for Cannabinoid quantity in Sample S201 / Cannabinoid quantity in Sample S103 / Change in cannabinoid quantity, Sample S201 compared to Sample S103: sodium chloride; for Cannabinoid quantity in Sample S201 / Cannabinoid quantity in Sample R104A / Cannabinoid quantity in (Retest) Sample R104A / Cannabinoid quantity in Sample R104B: with rapid cooling process; for Cannabinoid quantity in Sample S103: from RB-Fat; for Cannabinoid quantity in Sample R104A: original test; for Cannabinoid quantity in Sample R104B: stored for three months before being tested; for Cannabinoid quantity in Sample R103A / Cannabinoid quantity in Sample R103B: from RB Fat; for Change in cannabinoid quantity, Sample S201 compared to Sample S103: with vs without rapid cooling process
[2] = Cannabinoid profile of the cannabis extract by LCMS analysis; conditions: cannabis extract labeled RB Fat

For CCCc1cc(O)c2c(c1)OC(C)(C)[C@@H]1CCC(C)=C[C@@H]21 [THCV, Tetrahydrocannabivarin], the “Cannabinoid quantity, Avg R103A-C” value ([1]; sucrose) was 0.16 mg/g, the “Cannabinoid quantity in Control R104” value ([1]; sucrose) was 0.34 mg/g and the “Cannabinoid quantity in Sample S201” value [1] was 0.41 mg/g. The “Cannabinoid quantity in Sample S103” value [1] was 0.51 mg/g, the “Cannabinoid quantity in Sample R104A” value ([1]; sucrose) was 0.54 mg/g and the “Cannabinoid quantity in (Retest) Sample R104A” value ([1]; sucrose) was 0.52 mg/g. For the same compound, the “Cannabinoid quantity in Sample R104B” value ([1]; sucrose) was 0.55 mg/g, the “Cannabinoid quantity in Sample R103A” value ([1]; sucrose) was 0.14 mg/g and the “Cannabinoid quantity in Sample R103B” value ([1]; sucrose) was 0.2 mg/g. For the same compound, the “Change in cannabinoid quantity, Sample S201 compared to Sample S103” value (from here on “Change in cannabinoid quantity”) [1] was “marginal differences”.

With CCCCCc1cc(O)c2c(c1)OC(C)(C)[C@@H]1CC=C(C)C[C@@H]21 [Δ8-THC, Δ-8-tetrahydrocannabinol] the “Cannabinoid quantity, Avg R103A-C” value ([1]; sucrose) was 0.06 mg/g, the “Cannabinoid quantity in Control R104” value ([1]; sucrose) was 1.7 mg/g and the “Cannabinoid quantity in Sample R104A” value ([1]; sucrose) was “no detectable quantities”. The “Cannabinoid quantity in (Retest) Sample R104A” value ([1]; sucrose) was 1.36 mg/g and the “Cannabinoid quantity in Sample R104B” value ([1]; sucrose) was 0.14 mg/g.

With CCCCCc1cc2c(c(O)c1C(=O)O)[C@@H]1C=C(C)CC[C@H]1C(C)(C)O2 [THC-A, Tetrahydrocannabinolic acid] the “Cannabinoid quantity in Sample RB Fat” value [2] was 37.07 mg/mL, the “Cannabinoid quantity, Avg R103A-C” value ([1]; sucrose) was 5.46 mg/g and the “Cannabinoid quantity in Sample R103A” value ([1]; sucrose) was 7.13 mg/g. For the same compound, the “Cannabinoid quantity in Sample R103B” value ([1]; sucrose) was 6.18 mg/g.

With CCCCCc1cc(O)c2c(c1)OC(C)(CCC=C(C)C)C=C2 (centres unmarked) [CBC, Cannabichromene] the “Cannabinoid quantity in Sample RB Fat” value [2] was 0.63 mg/mL, the “Cannabinoid quantity, Avg R103A-C” value ([1]; sucrose) was 0.45 mg/g and the “Cannabinoid quantity in Control R104” value ([1]; sucrose) was 0.8 mg/g. For the same compound, the “Cannabinoid quantity in Sample S201” value [1] was 0.84 mg/g, the “Cannabinoid quantity in Sample S103” value [1] was 0.94 mg/g and the “Cannabinoid quantity in Sample R104A” value ([1]; sucrose) was 1.18 mg/g. For the same compound, the “Cannabinoid quantity in (Retest) Sample R104A” value ([1]; sucrose) was 1.15 mg/g, the “Cannabinoid quantity in Sample R104B” value ([1]; sucrose) was 1.22 mg/g and the “Cannabinoid quantity in Sample R103A” value ([1]; sucrose) was 0.47 mg/g. The “Cannabinoid quantity in Sample R103B” value ([1]; sucrose) was 0.45 mg/g and the “Change in cannabinoid quantity” value [1] was “marginal differences”.

In the case of CCCCCc1cc(O)c2c(c1)OC(C)(C)c1ccc(C)cc1-2 [CBN, Cannabinol], the “Cannabinoid quantity in Sample RB Fat” value [2] is reported as 0.3 mg/mL, the “Cannabinoid quantity, Avg R103A-C” value ([1]; sucrose) is reported as 1.03 mg/g and the “Cannabinoid quantity in Control R104” value ([1]; sucrose) is reported as 0.57 mg/g. For the same compound, the “Cannabinoid quantity in Sample S201” value [1] was 0.79 mg/g, the “Cannabinoid quantity in Sample S103” value [1] was 2.33 mg/g and the “Cannabinoid quantity in Sample R104A” value ([1]; sucrose) was 1.17 mg/g. The “Cannabinoid quantity in (Retest) Sample R104A” value ([1]; sucrose) was 1.26 mg/g, the “Cannabinoid quantity in Sample R104B” value ([1]; sucrose) was 1.28 mg/g and the “Cannabinoid quantity in Sample R103A” value ([1]; sucrose) was 0.93 mg/g. The “Cannabinoid quantity in Sample R103B” value ([1]; sucrose) was 1 mg/g and the “Change in cannabinoid quantity” value [1] was “significant reduction”.

In the case of C=C(C)[C@@H]1CCC(C)=C[C@H]1c1c(O)cc(CCCCC)cc1O [CBD, Cannabidiol, reference compound], the “Cannabinoid quantity, Avg R103A-C” value ([1]; sucrose) is reported as “No detectable quantities”, the “Cannabinoid quantity in Control R104” value ([1]; sucrose) is reported as 0.17 mg/g and the “Cannabinoid quantity in Sample S201” value [1] is reported as 0.11 mg/g. For the same compound, the “Cannabinoid quantity in Sample S103” value [1] was 0.22 mg/g, the “Cannabinoid quantity in Sample R104A” value ([1]; sucrose) was 0.08 mg/g and the “Cannabinoid quantity in (Retest) Sample R104A” value ([1]; sucrose) was 0.15 mg/g. For the same compound, the “Cannabinoid quantity in Sample R104B” value ([1]; sucrose) was 0.17 mg/g and the “Change in cannabinoid quantity” value [1] was “marginal differences”.

With CCCc1cc2c(c(O)c1C(=O)O)C1C=C(C)CCC1C(C)(C)O2 (centres unmarked) [THCV-A] the “Cannabinoid quantity in Sample RB Fat” value [2] was 0.26 mg/mL, the “Cannabinoid quantity, Avg R103A-C” value ([1]; sucrose) was 0.02 mg/g and the “Cannabinoid quantity in Control R104” value ([1]; sucrose) was “undetectable quantities”. For the same compound, the “Cannabinoid quantity in Sample R104A” value ([1]; sucrose) was “negligible or no detectable quantities” and the “Cannabinoid quantity in Sample R103A” value ([1]; sucrose) was 0.05 mg/g.

In the case of CCCCCc1cc(O)c2c(c1)OC(C)(C)[C@@H]1CCC(C)=C[C@@H]21 [Δ9-THC, Δ-9-tetrahydrocannabinol, reference compound], the “Cannabinoid quantity in Sample RB Fat” value [2] is reported as 12.85 mg/mL, the “Cannabinoid quantity, Avg R103A-C” value ([1]; sucrose) is reported as 15.79 mg/g and the “Cannabinoid quantity in Control R104” value ([1]; sucrose) is reported as 35.37 mg/g. For the same compound, the “Cannabinoid quantity in Sample S201” value [1] was 40.04 mg/g, the “Cannabinoid quantity in Sample S103” value [1] was 21.93 mg/g and 21.92 mg/g and the “Cannabinoid quantity in Sample R104A” value ([1]; sucrose) was 57.13 mg/g. The “Cannabinoid quantity in (Retest) Sample R104A” value ([1]; sucrose) was 57.45 mg/g, the “Cannabinoid quantity in Sample R104B” value ([1]; sucrose) was 60.42 mg/g and the “Cannabinoid quantity in Sample R103A” value ([1]; sucrose) was 15.56 mg/g. The “Cannabinoid quantity in Sample R103B” value ([1]; sucrose) was 16.18 mg/g, the “Change in cannabinoid quantity” value [1] was “two-fold increase” and the “Increase in quantity, Sample R104A compared to the control sample” value ([1]; sucrose, rapid cooling process vs Control R104) was 62%.

With CCCCCc1cc(O)c(C/C=C(\C)CCC=C(C)C)c(O)c1 [CBG, Cannabigerol] the “Cannabinoid quantity in Sample RB Fat” value [2] was 0.69 mg/mL, the “Cannabinoid quantity, Avg R103A-C” value ([1]; sucrose) was 0.28 mg/g and the “Cannabinoid quantity in Control R104” value ([1]; sucrose) was 0.82 mg/g. The “Cannabinoid quantity in Sample S201” value [1] was 0.93 mg/g, the “Cannabinoid quantity in Sample S103” value [1] was 0.58 mg/g and the “Cannabinoid quantity in Sample R104A” value ([1]; sucrose) was 1.34 mg/g. The “Cannabinoid quantity in (Retest) Sample R104A” value ([1]; sucrose) was 1.29 mg/g, the “Cannabinoid quantity in Sample R104B” value ([1]; sucrose) was 1.25 mg/g and the “Cannabinoid quantity in Sample R103A” value ([1]; sucrose) was 0.32 mg/g. The “Cannabinoid quantity in Sample R103B” value ([1]; sucrose) was 0.26 mg/g and the “Change in cannabinoid quantity” value [1] was “marginal differences”.

With C=C(C)[C@@H]1CCC(C)=C[C@H]1c1c(O)cc(CCCCC)c(C(=O)O)c1O [CBD-A, Cannabidiolic acid] the “Cannabinoid quantity in Sample RB Fat” value [2] was 0.12 mg/mL, the “Cannabinoid quantity, Avg R103A-C” value ([1]; sucrose) was “No detectable quantities” and the “Cannabinoid quantity in Control R104” value ([1]; sucrose) was “undetectable quantities”. The “Cannabinoid quantity in Sample R104A” value ([1]; sucrose) was “negligible or no detectable quantities”.

With CCCCCc1cc(O)c(C/C=C(\C)CCC=C(C)C)c(O)c1C(=O)O [CBG-A, cannabigerolic acid] the “Cannabinoid quantity in Sample RB Fat” value [2] was 1.22 mg/mL, the “Cannabinoid quantity, Avg R103A-C” value ([1]; sucrose) was “no quantity of CBG-A was detected” and the “Cannabinoid quantity in Control R104” value ([1]; sucrose) was “undetectable quantities”. The “Cannabinoid quantity in Sample R104A” value ([1]; sucrose) was “negligible or no detectable quantities”.

With CCCCCc1cc2c(c(O)c1C(=O)O)C1C3C(CCC3(C)O2)C1(C)C (centres unmarked) [CBL-A, cannabicyclol acid] the “Cannabinoid quantity in Sample RB Fat” value [2] was 0.38 mg/mL, the “Cannabinoid quantity, Avg R103A-C” value ([1]; sucrose) was 0.39 mg/g and the “Cannabinoid quantity in Sample R103A” value ([1]; sucrose) was 0.46 mg/g. For the same compound, the “Cannabinoid quantity in Sample R103B” value ([1]; sucrose) was 0.35 mg/g.

— US9815810B1, “Method of cannabinoid preservation through crystallization and other crystal structures” (Deep Cell […]., priority 2016, dated 2017)
